Here are results for 1 compound from patent US12329852B2, “Sustained-release 9-cis retinoic acid implantable drug delivery pellets for the prevention of postsurgical edema and lymphedema” (UNIVERSITY OF SOUTHERN CALIFORNIA, priority 2019, dated 2025).

Entries after “also recorded” stand apart in the source; their conditions may differ. Like-named read-outs stand apart in the source and are kept apart here.

In data set [1] the test system is tail lymphedema. The data set can be described thus: Mouse tail secondary lymphedema model, tail volume (intraperitoneal injection). It counts as in vivo, BALB/c mice. Here is the method: All experiments were performed in accordance with the The Guide for the Care and Use of Laboratory Animals (National Research Council, 8th ed, 2011) and the Animal Welfare Act. Our protocol was approved by the University of Southern California Institutional Animal Care and Use Committee. Fifty adult BALB/c mice, 12 to 14 weeks old, weighing between 21 and 30 g were purchased from Jackson Laboratories (Jackson, Bar Harbor, ME). Animals were maintained in a temperature and light-controlled environment with ad libitum access to a normal chow diet and water.
A previously well described tail model to induce lymphedema was modified in the present experiments. Mice were anesthetized using 2.5% isofluorane, and a 5-mm wide circumferential skin excision was made 20-mm from the base of the tail. Underlying lymphatic vessels were visualized using isosulfan blue and ligated under a dissecting surgical microscope. Daily bacitracin antibiotic ointment was applied to the surgical site to prevent wound infection and desiccation.
Animals were randomly assigned to one of five groups following surgery: control, 7 days, 14 days, 45 days, and delay. Mice received daily intraperitoneal injections of either 100 μL vehicle solution (90 μL sunflower seed oil/10 μL 100% ethanol) or 0.08 mg/kg 9-cis RA dissolved in 100 μL of vehicle solution [5]. The treatment administered to each group was: (1) control: vehicle for 45 days following surgery, (2) 7 day: 9-cis RA for 7 days, (3) 14 day: 9-cis RA for 14 days, (4) 45 day: 9-cis RA for 45 days, and (5) delay: 9-cis RA for 7 days beginning one week after surgery. Animals with necrotic tails or that developed surgical site infections were sacrificed and excluded from analysis.
Animals were photographed every five days for a 6-week duration, and tail diameter was measured using ImageJ (National Institutes of Health, Bethesda, MD). Measurements were taken at 5-mm intervals from the distal-most edge of the wound for a total of seven measurements per animal for every time point. Total distal tail volume was calculated using the truncated cone formula [8]. Percent change in distal tail volume was recorded, analyzed, and plotted using GraphPad Prism 7 (GraphPad Software, Inc.).

For data set [2], the system named is tail lymphedema. Put plainly: Indocyanine green lymphangiography of tail (intraperitoneal injection). It counts as in vivo, BALB/c mice. Particulars: day 45; for ICG fluorescent intensity compared to control: 48 hours after injection. Here is the method:
On Day 45, animals were anesthetized using 2.5% isofluorane, and 5 μL of 2.5 mg/mL indocyanine green (ICG) was injected into the distal end of each animal's tail 15 minutes prior to imaging. The SPY Elite Fluorescence Imaging System (Novadaq Technologies, BC, Canada) was used to capture fluorescent images and heat maps of the tails at 0, 1, 2, 3, 6, 12, 24, and 48 hours following ICG injection. Capture conditions were kept constant throughout the trial. Fluorescent intensity of the tails at each time point was quantified using a previously described method for measuring cell fluorescence in ImageJ [4, 7]. Values were then recorded and plotted using GraphPad Prism 7. Percent change in fluorescent intensity from the peak fluorescent uptake at 6 hours was used to measure ICG clearance.

Data set [3] deals with tail lymphedema. The data set can be described thus: Dermal and epidermal thickness, H&E stained tails. It counts as in vivo, BALB/c mice. The note with it: 0.08 mg/kg daily i.p.; for mean epidermal tail thickness / dermal thickness: mean±standard error. Here is the method:
Tail specimens were collected on post-operative day 47. Specimens were harvested to include 1 cm proximal and 1 cm distal the wound, then divided to separate proximal and distal portions. Tails were inked to enable proper orientation, fixed in 10% neutral buffered formalin overnight, decalcified in 10% EDTA (pH: 7.3) for 6 days at 4° C., embedded in paraffin, sectioned at 3-5 μm, then stained with hematoxylin and eosin (H&E) or via immunohistochemical techniques. In summary, sections were deparaffinized, underwent antigen retrieval with sodium citrate buffer, incubated overnight with the primary antibody (1:200) at 4° C., washed, incubated with a suitable secondary antibody (1:200), then stained with immPACT DAB Substrate (Vector Laboratories, Inc, Burlingame, CA) and counterstained with Delafield Hematoxylin (Sigma-Aldrich, USA) diluted 1:4. Podoplanin (clone 8.1.1; sc-53533, Santa Cruz Biotechnology, Inc., Dallas, TX) was used to immunohistochemically mark lymphatics in paraffin embedded tail sections.
Slides were counterstained with hematoxylin and mounted. All images were obtained with a Keyence BZ-X700 microscope (Itasca, IL) and epidermal and dermal thickness was measured using ImageJ (National Institutes of Health, Betheseda, MD). The thickest part of the epidermis and dermis was measured in 5 high-power fields per section, as previously described. On the immunohistochemically stained slides, podoplanin stained vessels in the dermis and subcutis were quantified in ImageJ. Two high-power fields per section were randomly selected and then analyzed by a blinded reviewer. The reviewer scored the number of podoplanin stained vessels and the area (mm^2) of the dermis and subcutaneous tissue in each image. Lymphatic vessel density was calculated from the absolute lymphatic number normalized to the dermal and subcutaneous area measured (number of lymphatics/mm^2).^2 For the immunofluorescent stained slides, LYVE-1 stained vessels were quantified with ImageJ, to assess included lymphatic density, lymphatic vessel width, inter-lymphatic vessel distance, branching points, loops and blind-ended sacs.

Data set [4] relates to diaphragmatic lymphatics. Put plainly: India ink staining of the diaphragm. It counts as in vivo, BALB/c mice. Particulars: 0.08 mg/kg daily i.p. The method, then:
On post-operative day 47, each animal was intraperitoneally injected with 5 cc of India Ink which was diluted 2-folds with distilled water. Ten minutes after the injection of India ink, the animal was euthanized and the diaphragms were harvested in their entirety. The specimens were then rinsed with running tap water for 1 minute and mounted on the stage of a dissecting microscope equipped with a digital camera. The whole-mount specimen, exclusive of the central tendon, was then analyzed for the passive lymphatic absorption of India ink utilizing the percent stained area on ImageJ.

The conditions of data set [5]: mouse, in vivo, po.
Protocol: Oral administration experiments were performed on 30 adult BALB/c mice, 12 to 14 weeks old, and weighing between 21 and 30 g. Surgical excision of lymphatic vessels at 20-mm from the base of the tail was performed in order to induce secondary lymphedema. Mice receive 9-cis RA dissolved in sunflower oil via oral gavage for 6 weeks in accordance to the dosing regimes in Table 3.
Data set [6] deals with postsurgical lymphedema. Particulars: daily intraperitoneal injections 0.08 mg/kg; earlier work [13]; cited from earlier work.

Regarding `CC1=C(/C=C/C(C)=C\C=C\C(C)=C\C(=O)O)C(C)(C)CCC1` [9-cis RA, 9-cis retinoic acid], the “tail volume compared to control” value in data set [1] (0.08 mg/kg daily i.p. for 7 days) is listed as “approached tail volumes similar to the lymphedematous control group past the 4-week time point; also recorded: no significant effect on tail lymphedema or dermal thickening”; in data set [1] (0.08 mg/kg daily i.p. for 7 days beginning one week after surgery (delay group)), “statistically significant decrease in tail volumes from day-14 onwards; also recorded: decreased tail volume”; in data set [1] (0.08 mg/kg daily i.p. for 14 days), “approached tail volumes similar to the lymphedematous control group past the 4-week time point; also recorded: no significant difference in tail volume”; in data set [1] (0.08 mg/kg daily i.p., continuous (45-day/42-day group)), “significantly smaller than the lymphedematous controls”. Moreover, the “percent change of ICG fluorescent intensity compared to control” value in data set [2] (24 hours after ICG injection, all treatment groups) was “significant decrease in the percent change of fluorescent intensity compared to the control”. The “ICG fluorescent intensity compared to control” value in data set [2] (7-day group) is recorded as “no longer significant from the control”; in data set [2] (14-day, 42-day and 7-day delayed groups) it was “significant decrease in fluorescent intensity”. Also, in data set [3] (7-day group), the “dermal thickening compared to control” value is recorded as “no significant effect on tail lymphedema or dermal thickening”. For the same compound, the “mean epidermal tail thickness” value in data set [3] (7-day group) is 109.2±10.21 μm; in data set [3] (14-day group), 52.07±2.616 μm; in data set [3] (45-day group), 83.14±8.099 μm; in data set [3] (delay group) it was 73.51±10.94 μm. In addition, the dermal thickness in data set [3] (14-day group) worked out at 352.4±21.29 μm; in data set [3] (45-day group), 525.2±25.09 μm; in data set [3] (delay group) it was 502±30.17 μm. Besides, the results for the “percent stained area of diaphragms (India ink) vs vehicle control” value in data set [4] (14-day group) and in data set [4] (groups other than 14-day) were “marginal significance” and “essentially no differences”, respectively. Besides, the “systemic toxicity by liver and kidney function tests (AST, ALT, BUN)” value in data set [5] (10 mg/kg) and in data set [5] (30 mg/kg) was “minimal systemic toxicity” throughout. In data set [6], the “prevention of postsurgical lymphedema” value is “significantly prevents development of lymphedema; also recorded: prevents postsurgical lymphedema”.
